From ChEMBL document CHEMBL4837181 (Eur J Med Chem, 2020) come the findings set out here.

Series [1] can be described thus: Cmax in male cynomolgus monkey at 675 mg/kg, po measured on day 1. Particulars: in vivo. Also noted: route oral, dose 675 mg/kg. The series is classed as ADME, organism-based, Macaca fascicularis.
Series [2] is described as follows: Half life in female cynomolgus monkey at 675 mg/kg, po measured on day 1. The series is classed as ADME, organism-based, Macaca fascicularis. Particulars: in vivo.
A short description of series [3]: Tmax in male cynomolgus monkey at 150 mg/kg, po BID measured on day 8. Particulars: in vivo. It is filed as ADME, organism-based, Macaca fascicularis.
A short description of series [4]: AUC (0 to 24 hrs) in male cynomolgus monkey at 150 mg/kg, po BID measured on day 8. It is filed as ADME, organism-based, Macaca fascicularis. More on the design: time < 24 hr, route oral, dose 150 mg/kg. Particulars: in vivo.
The nature of series [5]: AUC (0 to 24 hrs) in female cynomolgus monkey at 375 mg/kg, po BID measured on day 8. Particulars: in vivo. It is filed as ADME, organism-based, Macaca fascicularis. Also noted: time < 24 hr, route oral, dose 375 mg/kg.
Series [6] is described as follows: Cmax in male cynomolgus monkey at 225 mg/kg, po measured on day 1. Conditions: in vivo. More on the design: route oral, dose 225 mg/kg. It is filed as ADME, organism-based, Macaca fascicularis.
Series [7] in a line: Cmax in male cynomolgus monkey at 150 mg/kg, po BID measured on day 8. It is filed as ADME, organism-based, Macaca fascicularis. More on the design: route oral, dose 150 mg/kg. Conditions: in vivo.
Series [8] can be described thus: Tmax in male cynomolgus monkey at 225 mg/kg, po measured on day 1. Conditions: in vivo. It is filed as ADME, organism-based, Macaca fascicularis.
Series [9] can be described thus: Cmax in female cynomolgus monkey at 375 mg/kg, po BID measured on day 8. It is filed as ADME, organism-based, Macaca fascicularis. Also noted: route oral, dose 375 mg/kg. Conditions: in vivo.
A short description of series [10]: Tmax in male cynomolgus monkey at 675 mg/kg, po measured on day 1. The series is classed as ADME, organism-based, Macaca fascicularis. Particulars: in vivo.
Series [11] is described as follows: Half life in male cynomolgus monkey at 675 mg/kg, po measured on day 1. The series is classed as ADME, organism-based, Macaca fascicularis. Conditions: in vivo.
The nature of series [12]: AUC (0 to 24 hrs) in female cynomolgus monkey at 675 mg/kg, po measured on day 1. The series is classed as ADME, organism-based, Macaca fascicularis. More on the design: time < 24 hr, route oral, dose 675 mg/kg. Conditions: in vivo.
Series [13] can be described thus: Tmax in female cynomolgus monkey at 375 mg/kg, po BID measured on day 8. Conditions: in vivo. The series is classed as ADME, organism-based, Macaca fascicularis.
The nature of series [14]: Cmax in female cynomolgus monkey at 675 mg/kg, po measured on day 1. More on the design: route oral, dose 675 mg/kg. Conditions: in vivo. The series is classed as ADME, organism-based, Macaca fascicularis.
A short description of series [15]: Drug accumulation in monkey at 75 to 375 mg/kg, po BID. The series is classed as ADME, organism-based, Macaca mulatta. Conditions: rhesus monkey, in vivo, dose 75-375 mg/kg.
The nature of series [16]: AUC (0 to 24 hrs) in male cynomolgus monkey at 675 mg/kg, po measured on day 1. Conditions: in vivo. Also noted: time < 24 hr, route oral, dose 675 mg/kg. The series is classed as ADME, organism-based, Macaca fascicularis.
The nature of series [17]: AUC (0 to 24 hrs) in male cynomolgus monkey at 225 mg/kg, po measured on day 1. It is filed as ADME, organism-based, Macaca fascicularis. More on the design: time < 24 hr, route oral, dose 225 mg/kg. Conditions: in vivo, 24 h.
Series [18] is described as follows: Protein binding in Beagle dog plasma. The series is classed as ADME, cell-free, Canis lupus familiaris. Particulars: read-out: PPB.
Series [19] in a line: Tmax in female cynomolgus monkey at 675 mg/kg, po measured on day 1. It is filed as ADME, organism-based, Macaca fascicularis. Particulars: in vivo.
A short description of series [20]: Protein binding in human plasma. The series is classed as ADME, cell-free. Particulars: read-out: PPB.
A short description of series [21]: Drug accumulation in rat at 100 to 900 mg/kg, po BID. It is filed as ADME, organism-based. Conditions: in vivo, dose 100-900 mg/kg.

Molecules are shown by their SMILES.

With `CC(C)C[C@H](N)C(=O)N[C@H](Cc1cn(C)c2ccccc12)C(=O)O`, the Cmax in [1] was determined as 1760 nM; in series [6], 353 nM; in [7], 192 nM; in series [9], 308 nM; in series [14], 1580 nM. For the same molecule, the results for the half-life in [2] and in series [11] were 8.2 h and 3.7 h, respectively. Besides, the time to peak (Tmax) in series [3] was found to be 1 h; in series [8] it was 2 h; in [10] it was 1 h; in series [13], 2 h; in series [19], 1.5 h. For the same molecule, the AUC at 24 h in series [4] was determined as 0.0806 µM·h; in series [5], 0.703 µM·h. The AUC in [12] amounted to 3.61 µM·h; in series [16], 2.88 µM·h; in series [17], 0.858 µM·h. The Drug metabolism result in series [15] and in series [21] was “Metabolite_Notdetected” throughout. The fraction unbound in series [18] and in series [20] was above 0.5 in each case.

A word on the Cmax: it is the highest concentration seen after dosing. For orientation: half-life means the time needed for the level to fall by half in the phase considered. By Tmax is commonly meant the time at which the peak concentration occurs. As a reminder, the AUC is the area under the concentration-time curve, a measure of exposure.
